# Test results: patent US20260355357A1, “DIAGNOSTIC AGENTS AND USES THEREOF” (HADASIT MEDICAL RESEARCH SERVICES AND DEVELOPMENT LTD., priority 2023, published 2026)
# Experiments:
# [1] = test system: human brain; details: in vivo; cited from earlier work
# [2] = Adverse effects after bolus intravenous injection of DDG, rats; type: in vivo, rat; details: bolus i.v., 37 mg/kg to 248 mg/kg (mice and rats), awake up to 78 min
# Protocol: (§1) Mice and rats, males and females at equal numbers, were intravenously injected with a bolus of varying doses of deuterated 2-deoxy-D-glucose (2-DG, DDG, with varying numbers and positions of deuteration). DDGs were provided by CortecNet, France. The injection was performed under sedation in all rats (18) and in 12 of 18 mice, after which the animals woke up within 1 minute. […] Further to euthanasia, the brain, liver, kidneys, heart, and muscle were excised and immediately placed in liquid nitrogen. The frozen tissue samples were kept at −80 °C until further processing.
# (§2) The animals were observed awake for up to 78 min after the injection. The injection bolus was administered in less than 1 s and ranged from 0.1 mL for mice (ca. 25-40 g) to 0.6 mL for rats (ca. 120-160 g).
# [3] = Biodistribution of deuterated 2-deoxy-D-glucose, 2H-NMR of tissue extracts, rats; type: in vivo, rat; details: for concentration: [D4]DDG bolus i.v., 37-55 mg/kg (non-labeled 2DG equivalent)
# Protocol: as §1
# (§3) Extraction of the water-soluble metabolites and the lipids was carried out using the dual-phase extraction procedure as described previously [Katz-Brull R, et al. Differential routing of choline in implanted breast cancer and normal organs. Article. Magnetic Resonance in Medicine. July 2001; 46(1):31-38. doi:10.1002/mrm.1157]. Briefly, a frozen sample is placed in 10 mL of ice-cold methanol containing 0.4 mM phenyl phosphonic acid for at least 1 hour. The tissue is then homogenized in ice-cold methanol using a tissue homogenizer. Equal volumes of chloroform and water are then added to the sample tube, and the mixture is vortexed and vigorously shaken. The samples are allowed to stand at 4 °C for at least 24 hours for phase separation. The methanol-water phase is aspirated, treated with Chelex to remove divalent ions, and then lyophilized for at least 24 hours. When the samples are dry (as powder), they are redissolved in 0.5 mL of double-distilled water and transferred to 5-mm NMR tubes for scanning. The samples are scanned in a 9.4 T NMR spectrometer.
# [4] = Adverse effects after bolus intravenous injection of DDG, mice; type: in vivo, mouse; details: bolus i.v., 37 mg/kg to 248 mg/kg (mice and rats), awake up to 78 min
# Protocol: as §1, §2
# [5] = Biodistribution of deuterated 2-deoxy-D-glucose, 2H-NMR of tissue extracts, mice; type: in vivo, mouse; details: [D4]DDG bolus i.v., 43-45 mg/kg (non-labeled 2DG equivalent)
# Protocol: as §1, §3
# [6] = n=2, read-out: concentration in the heart
smiles,measurement,setting,value
OC[C@H]1OC(O)[C@H](F)[C@@H](O)[C@@H]1O (stereo partly drawn) [[18F]-fluoro-2-deoxy-D-glucose],accumulation in the human brain,[1],accumulates at very high levels in the human brain
"[2H]C([2H])(O)[C@H]1OC(O)C[C@@]([2H])(O)[C@]1([2H])O (stereo partly drawn) [[D4]DDG, [3,4,6,6-D4]2-deoxy-D-glucose]",adverse effects,[2],no adverse effects
same,2H-NMR signal in rat brain extract,"[3]; FIG. 7, 45 mg/kg, awake 36 min, 9.4 T",due to the deuterons of [D4]DDG
same,2H-NMR signal in rat brain extract,"[3]; FIG. 7 legend, awake 30 min","the right signal (full arrow) is of deuterons of [3,4,6,6-D4]2-deoxy-D-glucose"
same,concentration,[3]; [6],2700 µM
same,concentration,"[3]; n=6, read-out: concentration in the brain",1600 µM
same,concentration,"[3]; n=6, read-out: concentration in the muscle",80 µM
same,adverse effects,[4],no adverse effects
same,concentration,"[5]; n=1, read-out: concentration in the kidneys",1790 µM
same,concentration,[5]; [6],3140 µM
same,concentration,"[5]; n=2, read-out: concentration in the liver",230 µM
